Entries after “also recorded” stand apart in the source; their conditions may differ.
How the values were obtained:
[1] = system: soluble FGF receptor 1 (FGFR-1; flg); test: Competition binding to soluble FGFR1 (displacement of 125I-FGF-2); parameters: species or system murine; settings: 200 ng/ml heparin
Procedure: (§1) Binding of FGF proteins to different FGF receptors are determined in this example, by measuring the degree of competition for binding to different types of FGF-receptor proteins between a radioiodinated FGF protein and various unlabelled proteins, or by the direct binding of radioiodinated FGF's to various receptor proteins. Binding studies are confirmed by chemical cross-linking of the radioiodinated FGF to soluble receptors in the presence and absence of excess unlabelled FGF.
(§2) Soluble FGF receptor proteins are constructed by cloning of the extracellular region of murine FGF receptor 1 (FGFR-1; flg), FGF receptor 2 (FGFR-2; bek) or the KGF receptor (FGFR(IIIb); K-sam) into the alkaline phosphatase-tag expression vector, which encodes for a secreted form of placental alkaline phosphatase (AP). The FGF receptor alkaline phosphatase (FRAP) plasmids are cotransfected into NIH 3T3 cells by electroporation with a selectable neomycin resistance gene. Clonies are selected in G418 (600 μg/ml) and screened for secreted AP enzyme activity in the conditioned medium. Clones of each receptor which produced a high level of AP activity (2 to 4 A405 units/min/ml) are then used to produce conditioned medium for binding assays.
(§3) Components of the soluble receptor binding reaction mixture include FRAP-conditioned medium (0.24 OD units/min), 2 ng/ml^125 I-FGFs and 200 ng/ml heparin. The FGF:heparin:FRAP terniary complex is immunoprecipitated with 20 μl of a 1:1 slurry of anti-AP monoclonal antibodies coupled to protein A Sepharose®. All components are mixed at room temperature. The total volume is adjusted to 200 μl by addition of DMEM containing 0.1% bovine serum albumin. Binding is allowed to proceed for 1 to 2 hours at 24° C., after which time bound receptor complex or the ligand is recovered by centrifugation at 4° C. (10 s at 2,000×g). The pelleted material is washed twice with 500 μl of an ice cold buffer containing HEPES (20 mM), NaCl (150 mM), glycerol (10%) and Triton® X-100 (1%). ^125 I-FGF binding is quantitated by counting of the samples in a gamma counter (LKB). Alternatively, AP enzyme activity of the FRAP protein is determined by transferring the FRAP receptor bound to […] to a flat-bottom microtiter plate in a volume of 50 μl of PBS. The reaction is initiated by addition of substrate (50 μl of 2× solution of AP assay buffer containing 2M diethanoiamine, 1 mM MgCl2, 20 mM homoarginine and 12 mM p-nitrophenyl phosphate). The reaction is followed at room temperature at 405 nm in a kinetic microplate reader.

[2] = system: FGFR1; test: Chemical cross-linking of 125I-FGF to soluble FGFR1; type: binding, murine; settings: with and without excess unlabelled FGF
Procedure: as §1, §2
(§4) Chemical cross-linking experiments are carried out at room temperature in a volume of 20 μl in siliconized 0.5-ml microcentrifuge tubes. The reaction mixtures contain FGF receptor immobilized to anti-AP monoclonal antibodies coupled to protein A Sepharose®, 200 ng/ml heparin, 2 ng/ml^125 I-bFGF, 20 mM phosphate buffer (pH 7.4), and 140 mM NaCl. After a 90 minute incubation, […] of a solution of disuccinimidyl suberate (Pierce) dissolved in dimethyl sulfoxide is added to give a final concentration of 0.15 mM, and the mixture incubated for an additional 30 minutes. The reaction is quenched by addition of […] of 200 mM ethanolamine-HCl (pH 8.0) for 30 min. The reaction mixtures are diluted 1:1 with 2× SDS-polyacrylamide gel electrophoresis loading buffer and electrophoresed on an SDS-12% polyacrylamide gel. Cross-linked FGF to the FGF receptor are detected by autoradiography on Kodak XAR film.

[3] = system: FGFR2(IIIb) (FGF-7 or KGF receptor); test: Competition binding to soluble FGFR2(IIIb) (displacement of 125I-FGF-7); parameters: species or system murine; settings: 200 ng/ml heparin
Procedure: as §1, §2, §3

[4] = system: FGF receptor on BHK cells; test: Competition for 125I-FGF-2 binding to baby hamster kidney (BHK) cells; settings: 50 pM 125I-FGF-2; compared with FGF-2
Procedure: FGF-2LI and FGF-2LA are tested for their capacity to compete for the binding of ^125 I-FGF-2 (Amersham Corp.) to baby hamster kidney (BHK) cells, which express high numbers of FGF receptor. The assay employed is described by Moscatelli (J. Cell. Physiol. 131: 123-130 (1987)). Briefly stated, BHK cells plated on 24-well plates are incubated with 50 pM ^125 I-FGF-2 with serial dilutions of unlabelled FGF-2, FGF-2LI or FGF-2LA loop mutants at room temperature for 1 hour or at 4° C. for 2 hours. The cells are then incubated at 4° C. for 30 minutes, washed twice with phosphate-buffered saline and treated with 20 mM HEPES (N-2-hydroxyethyl-piperazine-N'-2-ethanesulfonic acid), pH 7.5, containing 2M NaCl to remove ^125 I-FGF-2 bound to low affinity heparin sulfate binding sites. Receptor bound ^125 I-FGF-2 is recovered by treatment of the cells with 0.5% Triton X-100 in 0.1M sodium phosphate, pH 8, and counted in a γ-counter. Assays are conducted in duplicate.

[5] = system: FGFR2(IIIb); test: Chemical cross-linking of 125I-FGF to soluble FGFR2(IIIb); type: binding, murine; settings: with and without excess unlabelled FGF
Procedure: as §1, §2, §4

[6] = Affinity for immobilized heparin (NaCl elution from heparin column); type: binding
Procedure: Cells from 1 liter cultures are harvested by centrifugation, resuspended in 30 ml of 50 mM Tris-HCl, pH 7.5 containing 0.1 mM EDTA and 0.6M NaCl, and disrupted by treatment with lysozyme (10 μg/ml) for 20 min at 4° C. followed by sonication (6×30 sec pulses). The lysates are clarified by centrifugation (10,000×g; 20 min) and the supernatant solutions incubated with 5 ml of hydrated heparin Sepharose (Pharmacia/LKB) at 4° C. for 1 hour with constant rotation. The resin is isolated by filtration on 0.8 μm filter apparatus (Nalgene), washed extensively with 10 mM Tris-HCl pH 7.4 containing 0.6M NaCl and bound protein eluted with Tris buffer containing 3M NaCl (25 ml). The 3M NaCl eluent is diluted 6-fold with Tris buffer and loaded onto a TSK heparin 5PW column (0.21×15 cm; The Nest Group, MA) and the column developed using a linear NaCl gradient (0.6 to 2M) in 90 min at a flow rate of […].
NaCl elution from heparin-Sepharose® is about 0.7M NaCl, compared with 1.4M NaCl for the wild-type protein. The molarity of NaCl required to elute the LK mutant is similar to that required to elute FGF-7.

[7] = system: neovascularization; test: In vivo angiogenesis, rabbit ear chamber model
Procedure: In an in vivo model of angiogenesis, FGF-2LI is evaluated using the rabbit ear chamber system modified and improved by Howden, G. F., and Silver, I. A., (Int. Endodontic J. 13: 3-16 (1980)), observing the growth factor-induced neovascularization, or its inhibition, by modified growth factors or other reagents.
Rabbits are sedated using 50-70 mg/kg ketamine and 10 mg/kg xylozine administered intramuscularly. The ears are shaved with an electric hair clipper and cleaned with water, followed by Betadine®. To minimize the risk of infection, the rabbits are given 20,000 units/kg benzathine penicillin intramuscularly prior to insertion of the ear chambers. The chamber is inserted into an approximately 0.75 cm area which is not crossed by any major vessels. During the course of the experiments, observations or any minor handling of ear chambers of the animals is done by sedating the animal using the intramuscular administration of a combination of Butorphanol® and acepromazine at levels of 1 mg/kg each. FGF-2 or FGF-2LI bound to heparin-Sepharose® beads in a controlled-release alginate capsule is contained in one of the ear chambers and the other is used as a control containing only the heparin-Sepharose® alginate capsule vehicle. Thus, the effect of the growth factors and the controlled-release capsule alone can be observed simultaneously in the same animal. […] The animals are kept for 4 to 6 weeks and neovascularization is observed visually and recorded photographically at weekly intervals.
The criteria for evaluation of the degree of neovascularization using this procedure is set out below.

Binding to soluble FGFR1 (competition with 125I-FGF-2) [1] | Binding to soluble FGFR2(IIIb) (competition with 125I-FGF-7) [3] | Substance | Cross-linking to FGFR1 [2] | Capacity to compete with 125I-FGF-2 binding to FGF receptors on BHK cells [4] | Cross-linking to FGFR2(IIIb) [5] | NaCl concentration at elution from TSK-heparin column ([6]; TSK-heparin column) | NaCl elution from heparin-Sepharose ([6]; heparin-Sepharose) [M] | Angiogenesis at 400 ng/chamber ([7]; 400 ng/chamber) | Concentration range over which stimulatory activity is observed ([7]; rabbit ear chamber) | Potential to induce angiogenesis (neovascularization) ([7]; rabbit ear chamber, controlled-release alginate capsule) | Vessel formation in the chamber ([7]; rabbit ear chamber, versus control chambers)
bind equally well | bind with the same affinity | FGF-1: acidic fibroblast growth factor | bind | affinity equal to that of FGF-2 | bind | – | – | – | – | – | –
– | – | hrIL-1β: human recombinant interleukin-1β (Biogen) [reference compound] | – | no binding | – | – | – | – | – | – | –
no binding | bind with the same affinity | FGF-7: fibroblast growth factor-7, also known as keratinocyte growth factor or KGF (NHYNTYASAKWTHNGGEMFVALNQK) | not detected | – | bind | – | – | – | – | – | –

Substance | Binding to soluble FGFR1 (competition with 125I-FGF-2) [1] | Binding to soluble FGFR2(IIIb) (competition with 125I-FGF-7) [3] | Cross-linking to FGFR1 [2] | Capacity to compete with 125I-FGF-2 binding to FGF receptors on BHK cells [4] | Cross-linking to FGFR2(IIIb) [5] | NaCl concentration at elution from TSK-heparin column ([6]; TSK-heparin column) | NaCl elution from heparin-Sepharose ([6]; heparin-Sepharose) [M] | Angiogenesis at 400 ng/chamber ([7]; 400 ng/chamber) | Concentration range over which stimulatory activity is observed ([7]; rabbit ear chamber) | Potential to induce angiogenesis (neovascularization) ([7]; rabbit ear chamber, controlled-release alginate capsule) | Vessel formation in the chamber ([7]; rabbit ear chamber, versus control chambers)
FGF-2: basic fibroblast growth factor, wild-type factor used as comparator (NNYNTYRSRKYTSWYVALKRT) [reference compound] | bind equally well | do not bind; also recorded: does not compete | bind | – | excluded from binding | about 1.5 M | 1.4 | completely inhibited | 10-100 ng/chamber | dose-dependent induction of new blood vessels | stimulate large vessel formation

Reference: patent US5491220A, “Surface loop structural analogues of fibroblast growth factors” (Yeda Research and Development Co., Ltd., priority 1994, dated 1996)
